Test results reported in US7652017B2, “Remedies and/or preventives for nervous system disorders” (Mitsubishi Tanabe Pharma Corporation, priority 1999, dated 2010).

Experiments:
[1] = system: ischemic/reperfused myocardium; assay: Regional cardiac function (% SS) in ischemic/reperfused myocardium in dogs; type: in vivo, dog; conditions: 3 μg/kg i.v. 5 minutes before reperfusion; 30-min LAD occlusion, 1 h reperfusion
Description: The chest of mongrel dogs (adults, male and female) was opened under anesthesia with pentobarbital (30 mg/kg, i.v.) and a portion of the left coronary anterior descending (LAD) was dissected. A catheter-tip-pressure transducer (Millar; MPC-500) was inserted from the left carotid artery into the left ventricle to determine the left ventricular pressure and its first differential value (dP/dt). A pair of crystal probes were mounted in the LAD region to determine changes in regional segment length. Diastolic segment length (EDL; threshold point of dP/dt) and systolic segment length (ESL; dP/dt(−) max point) were determined from the waveform of dP/dt, and the regional segment shortening (% SS) in the ischemic/reperfused myocardium was calculated as follows: % SS=(EDL−ESL)/[…]×100
After hemodynamic stability is established following operation, the dissected portion of LAD was occluded for 30 minutes and then reperfused for 1 hour. At the same time, the cardiac function (% SS) in the above-described ischemic/reperfused region was continuously monitored throughout the protocol.
The animals were randomly grouped into two groups, one consisting of animals to be administered with 5-methyl-2-(1-piperazinyl)benzenesulfonic acid monohydrate (drug administration group; N=6) and the other of control group (N=6). […]

[2] = system: hippocampus CA1 pyramidal cells; assay: Action on delayed neuronal cell death in rat (10-minute forebrain ischemia); type: in vivo
Description: (§1) Bilateral vertebral arteries of Wister male rats weighing 250 to 300 g were electrically cauterized before 24 hours from ischemic induction to prepare rats showing no neurological symptom such as hemiplegia. Only vertebral arteries of rats were cauterized to prepare rats as sham operation group. Before 30 minutes from ischemic induction, 0.1 mg/kg-b.w. or 1 mg/kg-b.w. of 5-methyl-2-(1-piperazinyl)benzenesulfonic acid monohydrate suspended in distilled water was administered orally to the rat of drug administration group and the equivalent dose of distilled water was administered to the rat of control group.
Ischemia was inducted by 10-minutes' bilateral occlusion of the common carotid arteries under ether anesthesia. […] During ischemia and after recirculation, until recovery of righting reflex, the rats were put on the heating mat to maintain their body temperature. After 72 hours from recirculation, the brain of the rat was fixed by perfusion with a fixative, FAM (formalin:acetic acid:methanol ▭1:1:8). After that, it was embedded by paraffin and a 5 μm thick slice of the forebrain was prepared in an usual manner Haematoxylin stain was conducted and the number of hippocampus CA1 pyramidal cells were counted to obtain the number of the cells per mm (neuronal density). The number of hippocampus CA1 pyramidal cells in sham operation group was 166.0±6.7. After 10 minutes ischemia induction, the number of hippocampus CA1 pyramidal cells in control group (distilled water administration group) was 31.2±13.3 and about 80% of total neuronal cells were led into degeneration and necrosis. The number of hippocampus CA1 pyramidal cells in 0.1 and 1 mg/kg 5-methyl-2-(1-piperazinyl)benzenesulfonic acid monohydrate oral administration group was 74.3±16.0 and 104.1±21.9, respectively. Both of them inhibited neuronal cell death dose-dependently and there is a significant difference between 1 mg/kg administration group and the control group.
(§2) The action on delayed neuronal cell death in rat was observed by the same method as Example 1 except for intravenously administering 0.03 mg/kg-b.w. or 0.3 mg/kg-b.w. of 5-n-propyl-2-(1-piperazinyl)benzenesulfonic acid suspended in distilled water instead of 5-methyl-2-(1-piperazinyl)benzenesulfonic acid monohydrate as a drug.

[3] = target: T1, sarcoplasmic reticulum calcium ion-ATPase (Canis lupus familiaris, UniProt O46674); assay: Sarcoplasmic reticulum calcium ion-ATPase activity of myocardium fractions; type: biochemical, dog
T1 construct: their hearts were isolated and the myocardium in post-ischemic region and non-ischemic region the left ventricles were collected; from tissue; host or cells: dog left-ventricle myocardium (post-ischemic and non-ischemic regions), sarcoplasmic reticulum fraction
T1 sequence (O46674 whole entry): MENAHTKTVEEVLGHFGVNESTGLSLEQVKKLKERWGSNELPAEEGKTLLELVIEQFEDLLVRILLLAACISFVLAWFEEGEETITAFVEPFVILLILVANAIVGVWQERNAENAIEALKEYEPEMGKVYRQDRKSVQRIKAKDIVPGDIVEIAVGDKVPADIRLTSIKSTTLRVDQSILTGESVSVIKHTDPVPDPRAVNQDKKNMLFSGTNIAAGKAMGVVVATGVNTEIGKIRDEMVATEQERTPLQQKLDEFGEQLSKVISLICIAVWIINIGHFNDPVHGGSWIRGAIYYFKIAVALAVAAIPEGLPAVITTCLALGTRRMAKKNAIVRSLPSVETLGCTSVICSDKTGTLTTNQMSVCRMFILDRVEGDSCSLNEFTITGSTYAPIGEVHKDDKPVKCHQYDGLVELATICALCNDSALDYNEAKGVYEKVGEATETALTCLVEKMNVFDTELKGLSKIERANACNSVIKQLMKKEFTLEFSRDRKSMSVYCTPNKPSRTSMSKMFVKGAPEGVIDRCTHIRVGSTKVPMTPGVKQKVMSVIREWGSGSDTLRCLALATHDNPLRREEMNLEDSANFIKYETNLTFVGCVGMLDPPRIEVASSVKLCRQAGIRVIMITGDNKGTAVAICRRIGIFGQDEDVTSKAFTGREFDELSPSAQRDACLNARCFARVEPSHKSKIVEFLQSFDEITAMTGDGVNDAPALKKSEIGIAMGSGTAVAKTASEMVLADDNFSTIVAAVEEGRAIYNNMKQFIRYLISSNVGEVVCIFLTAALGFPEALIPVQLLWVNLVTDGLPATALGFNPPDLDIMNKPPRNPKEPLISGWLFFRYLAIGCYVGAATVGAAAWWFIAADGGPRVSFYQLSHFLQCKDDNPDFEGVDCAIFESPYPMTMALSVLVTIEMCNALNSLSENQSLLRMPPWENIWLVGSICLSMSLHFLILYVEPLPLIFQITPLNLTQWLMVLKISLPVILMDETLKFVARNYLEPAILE

[4] = Action on disturbance of passive avoidance behavior in rat (5-minute ischemia); type: in vivo
Description: as §1, with “cauterized before 48 hours from” for “cauterized before 24 hours from”, “control group. The experiment was conducted by using the apparatus consisting of the bright room (50×50×50 cm) with 100 W lamp and the dark room (20×14×20 cm). The rat electrically cauterized bilateral vertebral arteries was put in the bright room to count the transit time to the dark room. The transit time was identified the reaction latency in the acquisition trial.” for “control group.”
The guillotine door was closed when the rat entered into the dark room and the rat was given electrical shock (2.9 mA, 5 seconds) from the floor grid to finish the acquisition trial.
Ischemia was inducted by 5-minutes' bilateral occlusion of the common carotid arteries under ether anesthesia. […] During ischemia and after recirculation, until recovery of righting reflex, the rats were put on the heating mat to maintain their body temperature. After 48 hours from recirculation, the retention trial was conducted. As the same manner as the acquisition trial, the rat put in the bright room had been observed for at most 300 seconds to count the transit time to the dark room (the reaction latency).
as §2, with “disturbance of passive avoidance” for “delayed neuronal cell death”

[5] = system: papillary muscle of the right ventricle; assay: Inhibition of the cardiotonic action of isoproterenol in isolated papillary muscle; set-up: species or system guinea-pig; conditions: Cavia porcellus, read-out: Inhibition (%) of developed tension increased by isoproterenol
Description: For the evaluation of the extent of inhibiting overaccumulation of intracellular calcium ions, inhibition of the cardiotonic action of isoproterenol by the compounds described in Table 1 and Table 2 as mentioned above was measured.
That is to say, since isoproterenol has been known to cause calcium ions overload by excessive calcium ions influx into cardiac myocytes (Fleckenstein A., Janke J., Doring H., Leder O.; Recent advances in Studies on cardiac structure and metabolism, Myocardial Biology, Vol. 4, pp. 563-580 (1974)), the compounds which inhibit the action of isoproterenol can inhibit intracellular calcium ions overload.
The papillary muscle of the right ventricle isolated from male Hartley guinea-pigs (body weight: 250 to 350 g) was suspended in an organ bath filled with a nutrient solution (Krebs-Henseleit solution). The temperature of the nutrient solution was maintained at 32° C., and the solution was aerated with a gas mixture of 95% oxygen and 5% carbon dioxide. The papillary muscle was applied with a resting tension of about 0.5 g, and stimulated with platinum electrodes by a rectangular pulse of a duration of 1 msec, a frequency of 1 Hz and a voltage higher by 15% than the threshold value. The developed tension of the papillary muscle was measured through a tension transducer and recorded with a polygraph system. After the preparation was stabilized for about 90 minutes, isoproterenol ( 10^−3 to 10^−7 M) was added into the organ bath so that developed tension could be increased by 100% or more, and at the point when the maximum response was obtained, the compounds of the present invention were added into the organ bath, and % inhibition of the developed tension increased by isoproterenol was measured.

In the case of `Cc1ccc(N2CCNCC2)c(S(=O)(=O)O)c1.O` [5-methyl-2-(1-piperazinyl)benzenesulfonic acid monohydrate], the “regional cardiac function (% SS) in post-reperfusion region compared to control group” value [1] is reported as “significantly improved”, the “number of hippocampus CA1 pyramidal cells (neuronal density)” value (“number” below) ([2]; 0.1 mg/kg oral 30 min before 10-min ischemia, 72 h after recirculation, control 31.2±13.3, sham 166.0±6.7) is reported as 74.3±16.0 per mm and the “number” value ([2]; 1 mg/kg oral 30 min before 10-min ischemia, 72 h after recirculation, P<0.05 vs control 31.2±13.3) is reported as 104.1±21.9 per mm. The “calcium ion-ATPase activity of sarcoplasmic reticulum, post-ischemic region” value ([3]; calcium ion concentration 10 μM, dogs given 3 μg/kg i.v. before reperfusion, control 0.070±0.004, P<0.05) was 0.090±0.008 μmol Pi/mg min, the “calcium ion-ATPase activity of sarcoplasmic reticulum, non-ischemic region” value ([3]; calcium ion concentration 10 μM, dogs given 3 μg/kg i.v. before reperfusion, control 0.089±0.009, no significant difference) was 0.088±0.006 μmol Pi/mg min and the “reaction latency in the retention trial” value ([4]; 0.1 mg/kg oral, 48 h after 5-min ischemia, control 71.4±29.4, sham 206.1±29.4) was 97.7 ± 31.2 s. For the same compound, the “reaction latency in the retention trial” value ([4]; 1 mg/kg oral, 48 h after 5-min ischemia, control 71.4±29.4, sham 206.1±29.4) was 139.0 ± 27.5 s.
Compound `Cc1ccc(N2CCNCC2)c(S(=O)(=O)O)c1` [Compound 12, 5-methyl-2-(1-piperazinyl)benzenesulfonic acid] has an inhibition at 1000 µM ([5]; drug concentration 10^−3 M) of 18.5%.
With `CCCc1ccc(N2CCNCC2)c(S(=O)(=O)O)c1` [Compound 14, 5-n-propyl-2-(1-piperazinyl)benzenesulfonic acid] the inhibition at 100 µM ([5]; drug concentration 10^−4 M) was 19.2%, the inhibition at 10 µM ([5]; drug concentration 10^−5 M) was 10.4% and the “number” value ([2]; 0.03 mg/kg, P<0.01, control 71.3±10.3, sham 177.8±5.3) was 125.1±5.7 per mm. For the same compound, the “number” value ([2]; 0.3 mg/kg, P<0.05, control 71.3±10.3, sham 177.8±5.3) was 131.9±9.9 per mm, the “reaction latency in the retention trial” value ([4]; 0.03 mg/kg intravenous, 5-min ischemia, P<0.001, control 88.2±18.1, sham 243.5±31.6) was 253.4 ± 25.6 s and the “reaction latency in the retention trial” value ([4]; 0.3 mg/kg intravenous, 5-min ischemia, P<0.05, control 88.2±18.1, sham 243.5±31.6) was 187.2 ± 36.1 s. For the same compound, the “reaction latency in the acquisition trial” value ([4]; every group (0.03 and 0.3 mg/kg intravenous, control, sham), no significant difference) was “about 20 seconds”.
In the case of `C/C=C(/C)C(=O)O[C@H]1C(C)=C2[C@H]([C@@H]1OC(=O)CCCCCCC)[C@@](C)(OC(C)=O)C[C@H](OC(=O)CCC)[C@@]1(O)[C@H]2OC(=O)[C@@]1(C)O` [Thapsigargin, reference compound], the “inhibition of sarcoplasmic reticulum calcium ion-ATPase activity” value ([3]; 1 μM added in vitro) is reported as “completely inhibited”.
